Patent publication US20230053540A1, “TREATMENT OF LIVER INJURY” (Massachusetts Institute of Technology, priority 2019, published 2023)

Test system: hepatocytes
Assay: Seq-Well scRNA-Seq of hepatocytes after APAP overdose (signature scores, DEG vs untreated)
Assay type: in vivo, mouse
[1] = hepatocyte cluster A96 (APAP, 96 h) vs all other clusters
[2] = hepatocytes, cluster A24 (APAP) vs other treatment clusters
[3] = hepatocytes, cluster A48 (APAP) vs other treatment clusters

## CC(=O)Nc1ccc(O)cc1 [APAP, acetaminophen]
[1]
  avg_logFC Fmo1: 0.2535
  avg_logFC Gclm: 0.269
  avg_logFC Hamp2: 0.2597
  avg_logFC Hsd17b7: 0.3023
  avg_logFC Lcat: 0.2519
  avg_logFC Mocs2: 0.2666
  avg_logFC Mtdh: 0.2838
  avg_logFC Ndufa3: 0.2765
  avg_logFC Ndufb2: 0.3005
  avg_logFC Nfe2l2: 0.2513
  avg_logFC Oat: 0.3213
  avg_logFC Pabpc1: 0.2527
  avg_logFC Pdk1: 0.2558
  avg_logFC Prkd3: 0.2593
  avg_logFC Ptp4a2: 0.2634
  avg_logFC Rgn: 0.291
  avg_logFC Sdhc: 0.2722
  avg_logFC Sdhd: 0.261
  avg_logFC Slc4a4: 0.2916
  avg_logFC Slc25a10: 0.2605
  avg_logFC Tgoln1: 0.2968
  avg_logFC Tmed5: 0.2563
  avg_logFC Tmem106b: 0.2604
  avg_logFC Tob1: 0.301
  avg_logFC Tsc22d3: 0.3181
  avg_logFC Usmg5: 0.2565
  avg_logFC Zfp91: 0.3255
[2]
  AA474408 avg_logFC: 0.4148
  Abca1 avg_logFC: 0.3831
  Acox1 avg_logFC: 0.2743
  Acsl4 avg_logFC: 0.299
  Adh4 avg_logFC: 0.392
  Ak3 avg_logFC: 0.2504
  Aox3 avg_logFC: 0.3489
  Arcn1 avg_logFC: 0.3044
  Atp8b1 avg_logFC: 0.361
  Atp11c avg_logFC: 0.2568
  Atxn1 avg_logFC: 0.325
  Calm1 avg_logFC: 0.3702
  Calu avg_logFC: 0.3005
  Canx avg_logFC: 0.2771
  Cltc avg_logFC: 0.3397
  Cmah avg_logFC: 0.4243
  Copa avg_logFC: 0.3334
  Cps1 avg_logFC: 0.2775
  Ctnnb1 avg_logFC: 0.329
  Cyb5r3 avg_logFC: 0.3097
  Ddost avg_logFC: 0.2909
  Dhcr24 avg_logFC: 0.2824
  Dnajb11 avg_logFC: 0.3288
  Dnajc12 avg_logFC: 0.324
  Echdc1 avg_logFC: 0.2818
  Edem1 avg_logFC: 0.2675
  Efna1 avg_logFC: 0.3161
  Eif4g1 avg_logFC: 0.2763
  Eif4g2 avg_logFC: 0.3515
  Eprs avg_logFC: 0.2513
  Etnk1 avg_logFC: 0.3194
  Fam120a avg_logFC: 0.2583
  Fasn avg_logFC: 0.2699
  Fndc3b avg_logFC: 0.3202
  Fos avg_logFC: 0.3632
  Gjb2 avg_logFC: 0.2998
  Gm5424 avg_logFC: 0.262
  Gm24245 avg_logFC: 0.414
  Grlf1 avg_logFC: 0.2556
  Hnf4a avg_logFC: 0.2549
  Hs3st3b1 avg_logFC: 0.3219
  Hsd3b5 avg_logFC: 0.3009
  Hspa13 avg_logFC: 0.342
  Ibtk avg_logFC: 0.2959
  Il6st avg_logFC: 0.3011
  Il13ra1 avg_logFC: 0.2889
  Insig1 avg_logFC: 0.4125
  Kmo avg_logFC: 0.2687
  Lasp1 avg_logFC: 0.2608
  Lgr4 avg_logFC: 0.2572
  Lpgat1 avg_logFC: 0.2525
  Lrg1 avg_logFC: 0.3096
  Lrp1 avg_logFC: 0.4837
  Lrrc59 avg_logFC: 0.2688
  Met avg_logFC: 0.2512
  Mlec avg_logFC: 0.3405
  Mtss1 avg_logFC: 0.2522
  Mtus1 avg_logFC: 0.3125
  Mug2 avg_logFC: 0.3166
  Nab1 avg_logFC: 0.2601
  Nars avg_logFC: 0.3127
  Nedd4 avg_logFC: 0.3305
  Nr1d2 avg_logFC: 0.3855
  Nr5a2 avg_logFC: 0.2599
  Nrp1 avg_logFC: 0.33
  Ostc avg_logFC: 0.3082
  Prg4 avg_logFC: 0.4007
  Prkd3 avg_logFC: 0.3041
  Proz avg_logFC: 0.28
  Pten avg_logFC: 0.2663
  Ptprf avg_logFC: 0.2888
  Qsox1 avg_logFC: 0.2817
  Rab1 avg_logFC: 0.3145
  Rpn1 avg_logFC: 0.3991
  Rrbp1 avg_logFC: 0.2968
  Sdf2l1 avg_logFC: 0.3078
  Sec31a avg_logFC: 0.2596
  Sec61b avg_logFC: 0.3008
  Sel1l avg_logFC: 0.2833
  Sh3bgrl avg_logFC: 0.2668
  Slc3a1 avg_logFC: 0.3074
  Slc38a10 avg_logFC: 0.2557
  Spcs3 avg_logFC: 0.3907
  Srebf1 avg_logFC: 0.3149
  Srp72 avg_logFC: 0.28
  Srpr avg_logFC: 0.2914
  Ssr1 avg_logFC: 0.3129
  Stard4 avg_logFC: 0.2922
  Stt3b avg_logFC: 0.2648
  Tmed7 avg_logFC: 0.3715
  Tmem30a avg_logFC: 0.3056
  Trip12 avg_logFC: 0.2832
  Txndc5 avg_logFC: 0.2758
  Uggt1 avg_logFC: 0.2805
  Uso1 avg_logFC: 0.3202
  Usp4 avg_logFC: 0.2959
  Usp9x avg_logFC: 0.3387
  Zbtb20 avg_logFC: 0.3135
[3]
  Abcb4 avg_logFC: 0.4425
  Abcd2 avg_logFC: 0.2813
  Abhd14b avg_logFC: 0.4059
  Acad11 avg_logFC: 0.3851
  Agt avg_logFC: 0.5795
  Ahcy avg_logFC: 0.34
  Ahsg avg_logFC: 0.3592
  Aldh9a1 avg_logFC: 0.3826
  Aldob avg_logFC: 0.4375
  Ambp avg_logFC: 0.286
  Amy1 avg_logFC: 0.4216
  Angptl3 avg_logFC: 0.6111
  Apoa5 avg_logFC: 0.4483
  Apoc2 avg_logFC: 0.8639
  Apoc3 avg_logFC: 0.407
  Apoe avg_logFC: 0.5049
  Apoh avg_logFC: 0.4628
  Atp5b avg_logFC: 0.3281
  Atp5h avg_logFC: 0.5978
  Bfar avg_logFC: 0.308
  Bnip3 avg_logFC: 0.462
  Cdo1 avg_logFC: 0.3971
  Cebpb avg_logFC: 0.3684
  Ces1b avg_logFC: 0.483
  Ces1c avg_logFC: 0.5488
  Chchd10 avg_logFC: 0.7517
  Cox5a avg_logFC: 0.4197
  Cox8a avg_logFC: 0.552
  Cp avg_logFC: 0.4274
  Cyp4a10 avg_logFC: 0.9326
  Cyp4a14 avg_logFC: 1.281
  Dbp avg_logFC: 0.2896
  Ddb1 avg_logFC: 0.3544
  Decr1 avg_logFC: 0.5669
  Decr2 avg_logFC: 0.4129
  Ech1 avg_logFC: 0.418
  Echs1 avg_logFC: 0.4649
  Ephx2 avg_logFC: 0.3869
  F2 avg_logFC: 0.3952
  F10 avg_logFC: 0.3927
  F12 avg_logFC: 0.388
  Fah avg_logFC: 0.3913
  Fcgrt avg_logFC: 0.4084
  Fkbp5 avg_logFC: 0.2572
  Fth1 avg_logFC: 0.375
  Gabarap avg_logFC: 0.4014
  Gc avg_logFC: 0.2979
  Gltscr2 avg_logFC: 0.3432
  Gm6484 avg_logFC: 0.4108
  Gm23935 avg_logFC: 0.4738
  Grn avg_logFC: 0.431
  Gstt3 avg_logFC: 0.3384
  Gys2 avg_logFC: 0.4231
  Hdac11 avg_logFC: 0.3557
  Herpud1 avg_logFC: 0.6044
  Hmgcl avg_logFC: 0.5501
  Hmgcs2 avg_logFC: 0.7687
  Hpx avg_logFC: 0.3851
  Hrg avg_logFC: 0.5316
  Hsd17b13 avg_logFC: 0.6221
  Hspa8 avg_logFC: 0.4107
  Khk avg_logFC: 0.5202
  Lcat avg_logFC: 0.5054
  Lims2 avg_logFC: 0.3761
  Lpin1 avg_logFC: 0.515
  Mat1a avg_logFC: 0.7753
  Mfsd2a avg_logFC: 0.6614
  Mlycd avg_logFC: 0.4378
  Ndrg2 avg_logFC: 0.3482
  Nr1i3 avg_logFC: 0.4759
  Oaf avg_logFC: 0.5021
  P4hb avg_logFC: 0.2981
  Pabpc1 avg_logFC: 0.4782
  Plin5 avg_logFC: 0.3985
  Pnpla2 avg_logFC: 0.3465
  Prodh2 avg_logFC: 0.5055
  Rbp4 avg_logFC: 0.3942
